Conditions: 343.15 K, Liquid, Vibrating tube method

CCCCCCCC(=O)OCC(COC(=O)CCCCCCC)(COC(=O)CCCCCCC)COC(=O)CCCCCCC [pentaerythritol tetraoctanoate]
Conditions | mass density [kg/m3]
8739.9 kPa | 932.4
8784.7 kPa | 932.5
8991.7 kPa | 932.5
9031.4 kPa | 932.6
9071.9 kPa | 932.5
9120.5 kPa | 932.6
9162.4 kPa | 932.7
9204.8 kPa | 932.7
9248.6 kPa | 932.6
9301 kPa | 932.7
9344.4 kPa | 932.8
9387.6 kPa | 932.8
9449 kPa | 932.8
9480 kPa | 933
9517.6 kPa | 933
9549.6 kPa | 933.1
9582.5 kPa | 933
9620.6 kPa | 932.9
9653.7 kPa | 933.2
9687.4 kPa | 933
9726.7 kPa | 933.1
9760 kPa | 933.1
9793.4 kPa | 933.2
9827.7 kPa | 933
9868.1 kPa | 933.1
9902.1 kPa | 933.2
9943.1 kPa | 933.2
9978.4 kPa | 933.4
10014 kPa | 933.3
10058 kPa | 933.4
10096 kPa | 933.4
10138 kPa | 933.4
10176 kPa | 933.4
10207 kPa | 933.3
10234 kPa | 933.4
10256 kPa | 933.5
10278 kPa | 933.4
10305 kPa | 933.6
10327 kPa | 933.5
10349 kPa | 933.5
10376 kPa | 933.6
10422 kPa | 933.8
10450 kPa | 933.7
10474 kPa | 933.6
10497 kPa | 933.7
10520 kPa | 933.7
10543 kPa | 933.8
10572 kPa | 933.6
10595 kPa | 933.7
10618 kPa | 933.7
10647 kPa | 933.6
10671 kPa | 933.7
10699 kPa | 933.7
10723 kPa | 933.8
10748 kPa | 933.8
10777 kPa | 933.8
10803 kPa | 933.9
10827 kPa | 933.9
10852 kPa | 933.8
10881 kPa | 933.9
10906 kPa | 933.9
10936 kPa | 934
10961 kPa | 934
10987 kPa | 933.9
11012 kPa | 933.9
11042 kPa | 934
11068 kPa | 934
11099 kPa | 934.1
11126 kPa | 933.9
11153 kPa | 934
11180 kPa | 934.2
11206 kPa | 934.2
11238 kPa | 934.2
11264 kPa | 934.2
11296 kPa | 934.3
11323 kPa | 934.3
11350 kPa | 934.2
11383 kPa | 934.3
11410 kPa | 934.3
11438 kPa | 934.3
11471 kPa | 934.3
11499 kPa | 934.3
11528 kPa | 934.4
11561 kPa | 934.4
11590 kPa | 934.4
11618 kPa | 934.4
11647 kPa | 934.2
11710 kPa | 934.4
11739 kPa | 934.5
11774 kPa | 934.4
11804 kPa | 934.5
11834 kPa | 934.4
11869 kPa | 934.5
11900 kPa | 934.6
11930 kPa | 934.7
11966 kPa | 934.6
11997 kPa | 934.7
12027 kPa | 934.6
12064 kPa | 934.7
12095 kPa | 934.7
12126 kPa | 934.7
12163 kPa | 934.8
12195 kPa | 934.7
12227 kPa | 934.8
12265 kPa | 934.9
12296 kPa | 934.8
12329 kPa | 934.9
12362 kPa | 934.8
12401 kPa | 934.9
12434 kPa | 935
12468 kPa | 935
12507 kPa | 935
12541 kPa | 935
12575 kPa | 935
12615 kPa | 935.1
12649 kPa | 935.2
12684 kPa | 935.1
12725 kPa | 935.1
12760 kPa | 935.1
12797 kPa | 935.2
12831 kPa | 935.2
12873 kPa | 935.3
12909 kPa | 935.2
12944 kPa | 935.3
12980 kPa | 935.3
13024 kPa | 935.5
13060 kPa | 935.3
13096 kPa | 935.4
13140 kPa | 935.5
13177 kPa | 935.5
13222 kPa | 935.7
13261 kPa | 935.6
13300 kPa | 935.6
13339 kPa | 935.6
13384 kPa | 935.7
13423 kPa | 935.6
13462 kPa | 935.6
13508 kPa | 935.7
13548 kPa | 935.8
13587 kPa | 935.6
13635 kPa | 935.7
13675 kPa | 935.7
13716 kPa | 935.8
13807 kPa | 936
13849 kPa | 936
13893 kPa | 936
13947 kPa | 936
13993 kPa | 936.1

Reference: the NIST ThermoML archive (doi:10.1021/je060271a)
